Test results reported in PubChem BioAssay (NCI).
Values joined by “and” are separate entries in the source; they are usually repeats but may differ in a detail not shown here. Equal values may be shown once.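 Following 48 hours of exposure in 96-well plates, responses at five concentrations were used to interpolate endpoints linearly. GI50 = concentration required for 50% inhibition of growth. TGI: total growth inhibition.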

Experiments:
Assay in all cases: NCI tumour cell line growth inhibition, 48 h
[1] = tested on: IGROV1 ovarian
[2] = tested on: HT29 colon
[3] = tested on: OVCAR-4 ovarian
[4] = tested on: HS 578T breast
[5] = tested on: MALME-3M melanoma
[6] = tested on: OVCAR-8 ovarian
[7] = tested on: MDA-MB-231 breast
[8] = tested on: MDA-N
[9] = tested on: NCI/ADR-RES ovarian
[10] = tested on: MDA-MB-435
[11] = tested on: BT-549 breast

SMILES | TGI [1] | TGI [2] | TGI [3] | TGI [4] | TGI [5] | TGI [6] | TGI [7] | TGI [8] | TGI [9] | TGI [10] | TGI [11] | GI50 [3] | GI50 [4] | GI50 [5] | GI50 [7] | GI50 [9]
c1ccc(CSC2(SCc3ccccc3)CCCCC2)cc1 | > 10 µM | > 10 µM | > 10 µM | > 10 µM | > 10 µM | > 10 µM | > 10 µM | > 10 µM | > 10 µM | – | – | – | – | – | – | –
COc1ccc(NC(=S)c2ccoc2C)cc1CC(=O)OC(C)C | > 100 µM | 36.3 µM | > 100 µM | > 100 µM | – | > 100 µM | > 100 µM | > 100 µM | 58.7 µM | > 100 µM | – | – | – | – | – | –
COc1cc(C2c3cc4c(cc3[C@@H](NCCN3CCOCC3)C3COC(=O)[C@H]23)OCO4)cc(OC)c1O (stereo not given in full) | 22.4 µM and > 17.5 µM | 18.1 µM and > 17.5 µM | 39.3 µM and > 17.5 µM | – | 11.2 µM and 14.2 µM | 11.9 µM | – | – | – | – | – | – | – | – | – | –
COc1ccc(/C=C2\C[C@H]3[C@@H]4CCC5=CC(=O)CC[C@]5(C)[C@H]4CC[C@]3(C)C2=O)cc1OC | > 100 µM | > 100 µM | > 100 µM | > 100 µM | > 100 µM | > 100 µM | – | > 100 µM | > 100 µM | > 100 µM | > 100 µM | – | – | – | – | –
O=C(CC(Cl)=C(Cl)Cl)c1ccccc1 | > 100 µM | > 100 µM | > 100 µM | > 100 µM | > 100 µM | > 100 µM | > 100 µM | – | > 100 µM | > 100 µM | > 100 µM | – | – | – | – | –
Nc1nc(-c2ccco2)cc(-c2ccc(CO)o2)n1 | > 100 µM | > 100 µM | > 100 µM | – | > 100 µM | > 100 µM | – | – | – | – | – | – | – | – | – | –
COc1ccc2nc3cccc([N+](=O)[O-])c3c(NCCCO)c2c1 | 0.0313 µM and 0.29 µM | 0.00183 µM | 0.0312 µM and 0.0859 µM | – | 0.00344 µM and 0.0202 µM | 0.0132 µM | – | – | 0.0276 µM and 0.248 µM | 0.0017 µM and 0.0128 µM | 0.0146 µM and 0.0929 µM | 0.0104 µM and 0.023 µM | 0.00445 µM and 0.033 µM | 0.00116 µM | 2.26 µM | 0.00616 µM and 0.0229 µM
CC(=O)OC(Cc1c(O)c2c(C)cccc2oc1=O)C(C)(C)O (stereo not given) | > 100 µM | > 100 µM | – | > 100 µM | > 100 µM | > 100 µM | > 100 µM | > 100 µM | > 100 µM | > 100 µM | > 100 µM | – | – | – | – | –
CC(C)NC(=O)OCc1c2c(n(C)c1COC(=O)NC(C)C)-c1ccccc1CC2 | 29.2 µM | 30.3 µM | 34.5 µM | – | 19.2 µM | 31.1 µM | – | – | 32.2 µM | – | – | – | – | – | – | –
O=C1c2ccccc2N2Oc3ccccc3C12c1ccccc1 (stereo not given) | > 100 µM | > 100 µM | > 100 µM | – | > 100 µM | > 100 µM | – | – | – | – | – | – | – | – | – | –
O=C(NNC(=O)c1csc(NC(=S)NC2CCCCC2)n1)c1ccccc1 | 17.7 µM | 21.3 µM | > 100 µM | – | 43.2 µM | 59.2 µM | 30.8 µM | 31.1 µM | 50.8 µM | 33.1 µM | 46.5 µM | – | – | – | – | –
C#CC1(O)CCCCCCCCC2(CCCCCCCC1)OCCO2 | 30.3 µM | 35.4 µM | 19.5 µM | 38.9 µM | 34.3 µM | 34.4 µM | – | 35.9 µM | 34.7 µM | 33.5 µM | – | – | – | – | – | –
CCOC1CC(C)N(C(=O)c2ccccc2)O1 (stereo not given) | > 100 µM | > 100 µM | – | > 100 µM | – | > 100 µM | > 100 µM | > 100 µM | > 100 µM | > 100 µM | > 100 µM | – | – | – | – | –
O=C(c1ccccc1)N1C(=S)N(c2ccccn2)C(=Nc2ccccc2)C1=Nc1ccccc1 | > 64.1 µM | > 100 µM | 32.5 µM | > 61.8 µM | 53.4 µM | > 100 µM | > 71.9 µM | > 50.7 µM | > 48.3 µM | > 58 µM | – | – | – | – | – | –
c1ccc2c(c1)OC(N1CCCC1)c1cnc(N3CCOCC3)nc1-2 (stereo not given) | – | > 100 µM | > 100 µM | > 100 µM | > 100 µM | > 100 µM | > 100 µM | – | – | > 100 µM | 72.8 µM | – | – | – | – | –
CC(=O)OC(C)(C)CCC(=O)[C@](C)(O)[C@H]1[C@H](O)C[C@@]2(C)[C@@H]3CCc4c(cc(OC5OC(CO)C(O)C(O)C5O)c(O)c4C)C3(C)C(=O)C[C@]12C (stereo not given in full) | > 100 µM | > 100 µM | > 100 µM | – | > 100 µM | > 100 µM | > 100 µM | > 100 µM | > 100 µM | > 100 µM | > 100 µM | – | – | – | – | –
CC1(C)[C@@H]2C[C@H]1c1cnc(-c3ccccn3)cc1C2CCCCC[C@@H]1c2cc(-c3ccccn3)ncc2[C@@H]2C[C@H]1C2(C)C (stereo not given in full) | 46.1 µM | > 33.3 µM | > 100 µM | – | > 100 µM | > 100 µM | 89 µM | 97.1 µM | > 100 µM | > 100 µM | > 100 µM | – | – | – | – | –
COc1ccccc1C1c2cc3c(cc2OC(N2CCOCC2)C1C)OCO3 (stereo not given) | 81.7 µM | 40.9 µM | – | 39 µM | – | > 100 µM | – | 24.8 µM | 61.6 µM | 24.9 µM | – | – | – | – | – | –
CC1(C)N=C(C2CCCN2C(=O)OCc2ccccc2)OC1=O (stereo not given) | > 100 µM | > 100 µM | – | > 100 µM | > 100 µM | > 100 µM | > 100 µM | > 100 µM | > 100 µM | > 100 µM | > 100 µM | – | – | – | – | –
CCOc1cc2c(c(OCC)c1O)CC[C@@H]1[C@@H]2CC[C@]2(C)[C@@H](O)CC[C@@H]12 | > 100 µM | 24.7 µM | > 100 µM | 95.1 µM | 66.4 µM | > 100 µM | 24.3 µM | 1.58 µM | 46 µM | 3.05 µM | – | – | – | – | – | –
COC(=O)CCC(NC(=O)OC(C)(C)C)C(=O)NC(Cc1ccc(NC(=O)CCCC(C)=O)cc1)C(=O)NC(CCC(=O)OC)C(=O)OC (stereo not given) | > 100 µM | > 100 µM | > 100 µM | > 100 µM | > 100 µM | > 100 µM | > 100 µM | > 100 µM | > 100 µM | > 100 µM | – | – | – | – | – | –
O=C(Nc1ccc(Cl)cc1)c1cc(S(=O)(=O)Nc2nnc3c(Cl)cc(C(F)(F)F)cn23)c(S)cc1Cl | > 100 µM | > 100 µM | > 100 µM | > 100 µM | > 100 µM | > 100 µM | > 100 µM | – | > 100 µM | > 100 µM | > 100 µM | – | – | – | – | –
